Data from US20020010182A1, “Piperazine derivatives as tachykinin antagonists” (FUJISAWA PHARMACEUTICAL CO., LTD., priority 1995, published 2002).
Structures can show the parent of a compound that is named as a salt.

Target: T1, h-NK1 receptors (Homo sapiens, UniProt P25103)
T1 construct: expressed in transfected cells; host or cells: CHO cells (permanent expression), crude cell membranes
Assay: Evaluation of NK1 antagonist transport efficiency to the central nervous system using a h-NK1 receptor binding assay
Conditions: 5 min, brain extract of male SD rats 5 min after i.v. injection of test compound, CHO cell membranes expressing h-NK1, read-out: inhibition rate of 125I-BH-Substance P binding to h-NK1 receptors
Method: A. Evaluation of NK1 Antagonist Transport Efficiency to the Cental Nervous System Using a h-NK1 Receptor Binding Assay
(1) Administration of Test Compound and Extraction of the Compound From Brain
Male SD rats were given an i.v. injection of a solution containing a test compound (1 mg/kg). 5 Min later the animals were anesthetized by ether, bled and perfused through the aorta ascendens with 20 ml of saline. The brain was rapidly removed, weighed and homogenized in 4 vol. ice-cold distilled water by using Polytoron (KINEMATICA). To extract the test compound, 500 μl of the homogenate, 100 μl of methanol, 500 μl of 0.1 N NaOH and 4 ml of ethyl acetate were mixed by shaking for 10 min at room temperature. The organic phase (2.5 ml) was recovered by centrifugation at 3,000 rpm for 10 min, dried and dissolved in dimethyl sulfoxide.
(2) h-NK1 Receptor Binding Assay
(a) Crude CHO Cell Membrane Preparation
CHO cells permanently expressing h-NK1 receptors were harvested and homogenized with a Dounce homogenizer at 4° C. in a buffer (0.25 M sucrose, 25 mM Tris-HCl (pH 7.4), 10 mM MgCl2, 1 mM EDTA, 5 μg/ml p-APMSF). The homogenate was centrifuged (500×g, 10 min), and the pellet was resuspended in the same buffer, homogenized, and centrifuged. The two supernatants were combined and centrifuged (100,000×g, 1 hour). The crude cell membranes thus isolated were resuspended in a buffer (25 MM Tris-HCl (pH 7.4), 10 mM MgCl2, 1 mM EDTA, 5 μg/ml p-APMSF) and stored at −80° C. until use.
(b) ^125I-BH-Substance P Binding to the Prepared Membrane
Cell membranes (6 μg/ml) were incubated with ^125I-BH-Substance P (0.1 nM) with or without the extracted compounds in 0.25 ml of a medium (50 mM Tris-HCl (pH 7.4), 5 mM MnCl2, 20 μg/ml chymrostatin, 40 μg/ml bacitracin, 4 μg/ml leupeptin, 5 μg/ml p-APMSF, 200 μg/ml BSA) at 22° C. for 90 min. At the end of the incubation period, the contents were quickly filtered through a Blue Mat 11740 filter (pretreated with 0.1% polyethylenimine for 3 hours prior to use) by using SKATRON Cell Harvester. The filter was then washed with a washing buffer (50 mM Tris-HCl (pH 7.4), 5 mM MnCl2) . The radioactivity was counted by using an auto gamma counter (Packard RIASTAR 5420A). All data presented are specific binding defined as that displaceable by 3 μM unlabeled Substance P.

T1 sequence (P25103 whole entry): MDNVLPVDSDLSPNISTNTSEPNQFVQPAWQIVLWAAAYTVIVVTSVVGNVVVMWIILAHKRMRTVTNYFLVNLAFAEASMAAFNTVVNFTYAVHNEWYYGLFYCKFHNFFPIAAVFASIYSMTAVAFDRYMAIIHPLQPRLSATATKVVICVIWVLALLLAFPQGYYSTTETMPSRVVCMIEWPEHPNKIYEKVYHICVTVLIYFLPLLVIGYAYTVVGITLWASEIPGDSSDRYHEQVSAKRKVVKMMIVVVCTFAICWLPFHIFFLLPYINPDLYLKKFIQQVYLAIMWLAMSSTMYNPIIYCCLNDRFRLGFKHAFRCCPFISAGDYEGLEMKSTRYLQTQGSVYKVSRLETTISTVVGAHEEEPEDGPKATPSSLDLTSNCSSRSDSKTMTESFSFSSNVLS

inhibition at 1 mg/kg [%]	SMILES
> 80	Cc1ccc(C[C@@H]2CN(CC#CCN3CCOCC3C)CCN2C(=O)c2cc(C(F)(F)F)cc(C(F)(F)F)c2)cc1C.Cl.Cl (stereo partly drawn) [Example 58, (2R)-1-[3,5-bis(trifluoromethyl)benzoyl]-2-(3,4-dimethylbenzyl)-4-[4-(3-methylmorpholino)-2-butynyl]piperazine dihydrochloride]
> 80	O=C(c1cc(C(F)(F)F)cc(C(F)(F)F)c1)N1CCN(CCCN2CCSC2)C[C@H]1Cc1c[nH]c2ccccc12 [Example 44-(7), (2R)-4-[3-(Thiazolidin-3-yl)propyl]-1-[3,5-bis (trifluoromethyl)benzoyl]-2-(1H-indol-3-ylmethyl) piperazine dihydrochloride]
> 80	O=C(c1cc(C(F)(F)F)cc(C(F)(F)F)c1)N1CCN(C/C=C/CNCc2cccnc2)C[C@H]1Cc1ccc2ccccc2c1 [82-(10), (2R)-1-[3,5-Bis(trifluoromethyl)benzoyl]-2-(2-naphthylmethyl)-4-[(E)-N-(3-pyridylmethyl)-4-amino-2-butenyl]piperazine trihydrochloride]
> 80	O=C(c1cc(C(F)(F)F)cc(C(F)(F)F)c1)N1CCN(CC#CCN2CCOCC2)C[C@H]1Cc1ccc(Cl)c(Cl)c1 [Example 36, (2R)-1-[3,5-bis(trifluoromethyl)benzoyl]-2-(3,4-dichlorobenzyl)-4-(4-morpholino-2-butynyl) piperazine]
> 80	O=C(c1cc(C(F)(F)F)cc(C(F)(F)F)c1)N1CCN(CCCNN2CCOCC2)C[C@H]1Cc1ccc2ccccc2c1 [82-(9), (2R)-1-[3,5-Bis(trifluoromethyl)benzoyl]-2-(2-naphthylmethyl)-4-(N-morpholino-3-aminopropyl) piperazine dihydrochloride]
> 80	O=C(c1cc(C(F)(F)F)cc(C(F)(F)F)c1)N1CCN(CCNCc2cccnc2)C[C@H]1Cc1ccc2ccccc2c1 [82-(7), (2R)-1-[3,5-Bis(trifluoromethyl)benzoyl]-2-(2-naphthylmethyl)-4-[N-(3-pyridylmethyl)-2-aminoethyl]piperazine trihydrochloride]
> 80	O=C(c1cc(C(F)(F)F)cc(C(F)(F)F)c1)N1CCN(CCCN2CCc3sccc3C2)C[C@H]1Cc1c[nH]c2ccccc12 [Example 26, (2R)-1-[3,5-Bis(trifluoromethyl)benzoyl]-2-(1H-indol-3-ylmethyl)-4-[3-(4,5,6,7-tetrahydrothieno[3,2-c]pyridin-5-yl)propyl]piperazine]
> 80	O=C(c1cc(C(F)(F)F)cc(C(F)(F)F)c1)N1CCN(CCO)C[C@H]1Cc1ccc(Cl)c(Cl)c1 [Example 47, (2R)-2-(3,4-dichlorobenzyl)-1-[3,5-bis(trifluoromethyl)benzoyl]-4-(2-hydroxyethyl) piperazine hydrochloride]
> 80	Cc1ccc(C[C@@H]2CN(CCCN3C[C@@H](C)O[C@@H](C)C3)CCN2C(=O)c2cc(C(F)(F)F)cc(C(F)(F)F)c2)cc1C [Example 81, (2R)-1-[3,5-Bis(trifluoromethyl)benzoyl]-2-(3,4-dimethylbenzyl)-4-[3-(cis-2,6-dimethylmorpholino)propyl]piperazine dihydrochloride]

Continued, compound first:

SMILES	inhibition at 1 mg/kg [%]
Cl.Cn1cc(CN2CCN(C(=O)c3cc(C(F)(F)F)cc(C(F)(F)F)c3)[C@H](Cc3c[nH]c4ccccc34)C2)cn1 [Example 77, (2R)-1-[3,5-bis (trifluoromethyl)benzoyl]-2-(1H-indol-3-ylmethyl)-4-[(1-methyl-1H-pyrazol-4-yl)methyl]piperazine hydrochloride]	> 80
Cc1ccc(C[C@@H]2CN(CCCCN3CCOCC3)CCN2C(=O)c2cc(C(F)(F)F)cc(C(F)(F)F)c2)cc1C.Cl.Cl [Example 54, (2R)-1-[3,5-bis(trifluoromethyl)benzoyl]-2-(3,4-dimethylbenzyl)-4-(4-morpholinobutyl) piperazine dihydrochloride]	> 80
CC(=O)c1ccc(C(=O)N2CCN(C(=O)c3cc(C(F)(F)F)cc(C(F)(F)F)c3)[C@H](Cc3ccc(C)c(C)c3)C2)cc1 [Example 11, (2R)-4-(4-acetylbenzoyl)-1-[3,5-bis (trifluoromethyl)benzoyl]-2-(3,4-dimethylbenzyl)piperazine]	> 80
Cc1ccc(C[C@@H]2CN(CCCN3CCCOCC3)CCN2C(=O)c2cc(C(F)(F)F)cc(C(F)(F)F)c2)cc1C [Example 67-(7), (2R)-1-[3,5-Bis(trifluoromethyl)benzoyl]-2-(3,4-dimethylbenzyl)-4-(3-homomorpholinopropyl) piperazine dihydrochloride]	> 80
O=C(c1cc(C(F)(F)F)cc(C(F)(F)F)c1)N1CCN(CCN2CCSCC2)C[C@H]1Cc1ccc2ccccc2c1 [Example 44-(2), (2R)-1-[3,5-Bis(trifluoromethyl)benzoyl]-2-(2-naphthylmethyl)-4-(2-thiomorpholinoethyl) piperazine dihydrochloride]	> 80
Cc1ccc(C[C@@H]2CN(CCN3CCCOCC3)CCN2C(=O)c2cc(C(F)(F)F)cc(C(F)(F)F)c2)cc1C [Example 67-(6), (2R)-1-[3,5-Bis(trifluoromethyl)benzoyl]-2-(3,4-dimethylbenzyl)-4-(2-homomorpholinoethyl) piperazine dihydrochloride]	> 80
O=C(c1cc(C(F)(F)F)cc(C(F)(F)F)c1)N1CCN(CCCCCN2CCOCC2)C[C@H]1Cc1c[nH]c2ccccc12 [Example 55, (2R)-1-[3,5-Bis(trifluoromethyl)benzoyl]-2-(1H-indol-3-ylmethyl)-4-(5-morpholinopentyl) piperazine dihydrochloride]	> 80
O=C(c1cc(C(F)(F)F)cc(C(F)(F)F)c1)N1CCN(CCCN2CCC(c3ccccc3)CC2)C[C@H]1Cc1c[nH]c2ccccc12 [Example 46, (2R)-1-[3,5-bis(trifluoromethyl)benzoyl]-2-(1H-indol-3-ylmethyl)-4-[3-(4-phenylpiperidino)propyl]piperazine]	> 80
Cc1ccc(C[C@@H]2CN(CCCNN3CCOCC3)CCN2C(=O)c2cc(C(F)(F)F)cc(C(F)(F)F)c2)cc1C [67-(4), (2R)-1-[3,5-Bis(trifluoromethyl)benzoyl]-2-(3,4-dimethylbenzyl)-4-[3-(morpholinoamino)propyl]piperazine dihydrochloride]	> 80
O=C(c1cc(C(F)(F)F)cc(C(F)(F)F)c1)N1CCN(C/C=C\CN2CCOCC2)C[C@H]1Cc1c[nH]c2ccccc12 [Example 71, (2R) -1-[3,5-bis(trifluoromethyl)benzoyl]-2-(1H-indol-3-ylmethyl)-4-[(Z)-4-morpholino-2-butenyl]piperazine dihydrochloride]	> 80
O=C(c1cc(C(F)(F)F)cc(C(F)(F)F)c1)N1CCN(CCCN2CCOCC2)C[C@H]1Cc1ccc(Cl)c(Cl)c1 [Example 44-(5), (2R)-1-[3,5-Bis(trifluoromethyl)benzoyl]-2-(3,4-dichlorobenzyl)-4-(3-morpholinopropyl) piperazine dihydrochloride]	> 80
Cc1ccc(C[C@@H]2CN(CCCNCc3cccnc3)CCN2C(=O)c2cc(C(F)(F)F)cc(C(F)(F)F)c2)cc1C [82-(1), (2R)-1-[3,5-Bis(trifluoromethyl)benzoyl]-2-(3,4-dimethylbenzyl)-4-[N-(3-pyridylmethyl)-3-aminopropyl]piperazine trihydrochloride]	> 80
Cc1ccc(C[C@@H]2CN(CCNCc3cccnc3)CCN2C(=O)c2cc(C(F)(F)F)cc(C(F)(F)F)c2)cc1C [Example 67-(5), (2R)-1-[3,5-Bis(trifluoromethyl)benzoyl]-2-(3,4-dimethylbenzyl)-4-[2-(3-pyridylmethylamino)ethyl]piperazine trihydrochloride]	> 80
O=C(c1cc(C(F)(F)F)cc(C(F)(F)F)c1)N1CCN(CCCNCc2cccnc2)C[C@H]1Cc1ccc2ccccc2c1 [82-(12), (2R)-1-[3,5-Bis(trifluoromethyl)benzoyl]-2-(2-naphthylmethyl)-4-[N-(3-pyridylmethyl)-3-aminopropyl]piperazine trihydrochloride]	> 80

System: not given
Assay: not given
Conditions: not given

melting point [°C]	SMILES
150 to 160	Cc1ccc(C[C@@H]2CN(CC#CCN3CCOCC3C)CCN2C(=O)c2cc(C(F)(F)F)cc(C(F)(F)F)c2)cc1C.Cl.Cl (stereo partly drawn) [Example 58, (2R)-1-[3,5-bis(trifluoromethyl)benzoyl]-2-(3,4-dimethylbenzyl)-4-[4-(3-methylmorpholino)-2-butynyl]piperazine dihydrochloride]
122 to 136	Cl.Cn1cc(CN2CCN(C(=O)c3cc(C(F)(F)F)cc(C(F)(F)F)c3)[C@H](Cc3c[nH]c4ccccc34)C2)cn1 [Example 77, (2R)-1-[3,5-bis (trifluoromethyl)benzoyl]-2-(1H-indol-3-ylmethyl)-4-[(1-methyl-1H-pyrazol-4-yl)methyl]piperazine hydrochloride]
279	Cc1ccc(C[C@@H]2CN(CCCCN3CCOCC3)CCN2C(=O)c2cc(C(F)(F)F)cc(C(F)(F)F)c2)cc1C.Cl.Cl [Example 54, (2R)-1-[3,5-bis(trifluoromethyl)benzoyl]-2-(3,4-dimethylbenzyl)-4-(4-morpholinobutyl) piperazine dihydrochloride]
